Test results as given in patent US20080280891A1, “Anti-cancer agents and uses thereof” (Locus Pharmaceuticals, Inc., priority 2006, published 2008).

Assays:
Assay type in all cases: cell-based
Jurkat cells = experiment: Cell viability assay (WST-1), Jurkat cells; details: Homo sapiens, WST-1, 48-72 hrs, 0.5% fetal calf serum
Method: (§1) Jurkat and Hela cells were cultured in RPMI and EMEM media, respectively, containing 0.5% fetal calf serum. Cells were plated in a volume of 100 μL in a 96 well format. Test compounds were included in the culture media at concentrations ranging from 1 nM to 10 μM for a period of 48-72 hrs. Cell viability was determined using the WST-1 calorimetric mitochondrial reduction assay. Briefly, 10 μL of WST-1 reagent was included in the culture well for a period of 1 to 4 hrs. The WST-1 reaction was read on a multiwell spectrophotometer as the difference in the absorbance between 450 nm and 600 nm (baseline). Absorbance was proportional to the number of living cells in the culture well. Concentration response curves and IC50 values were calculated using GraphPAD Prism graphing and curve fitting program.

[1] = test system: Jurkat T-cell leukemic cells; experiment: Cell cycle assay (Example 163), G2/M block in Jurkat cells; details: Homo sapiens, Jurkat, 24 h, flow cytometry (PI), Table 2
Hela cells = experiment: Cell viability assay (WST-1), Hela cells; details: Homo sapiens, HeLa, WST-1, 48-72 hrs, 0.5% fetal calf serum
Method: as §1

[2] = test system: MCF-7 breast cancer cells; experiment: Cell cycle assay (Example 163), G2/M block in MCF-7 cells; details: Homo sapiens, MCF7, 24 h, flow cytometry (PI), Table 2

Cc1cncc(C(=O)c2cc(O)cc(-c3cccc4[nH]ccc34)c2)c1 [[3-Hydroxy-5-(1H-indol-4-yl)-phenyl]-(5-methyl-pyridin-3-yl)-methanone]
IC50 (Jurkat cells): 1 to 999 nM | activation at 0.1 µM [1]: ≥ 50% | IC50 (Hela cells): 1 to 999 nM | activation at 1 µM [2]: ≥ 50%

O=C(c1ccc(CO)nc1)c1cc(O)cc(-c2cccc3[nH]ccc23)c1 [[3-Hydroxy-5-(1H-indol-4-yl)-phenyl]-(6-hydroxymethyl-pyridin-3-yl)-methanone]
IC50 (Jurkat cells): 1000 to 30000 nM | activation at 0.1 µM [1]: < 50% | IC50 (Hela cells): > 3000 nM | activation at 1 µM [2]: < 50%

O=C(c1cc(O)cc(-c2cccc3[nH]ccc23)c1)c1cnccn1 [[3-Hydroxy-5-(1H-indol-4-yl)-phenyl]-pyrazin-2-yl-methanone]
IC50 (Jurkat cells): 1 to 999 nM | activation at 0.1 µM [1]: < 50% | IC50 (Hela cells): 1 to 999 nM | activation at 1 µM [2]: < 50%
